In patent publication US10941158B2, “Pyrazole ACC inhibitors and uses thereof” (Gilead Apollo, LLC, priority 2015, dated 2021):
≈ marks a conversion by molar mass, not a printed value. Read-outs that look alike come from different tables or passages of the source.

Assays:
[1] = tested on: Fusarium moniliforme (Fm); assay: Growth inhibition assay of fungal pathogens; type: cell-based; conditions: for IC90: Fusarium verticillioides, 48 h, read-out: Concentration at 90% Inhibition Fm
Procedure: (§1) Compounds of the present invention were evaluated in a growth inhibition assay to determine the ability to control the growth of fungal pathogens, such as Botrtyis cinerea (Bc), Collectotrichum graminicola (Cg). Diplodia maydis (Dm), Fusarium moniliforme (Fm), Fusarium virguliforme (Fv), Phytophthora capsici (Pc), Rhizoctonia solani (Rs), and Septoria tritici (St). Compounds to be tested were dissolved in DMSO at 2.5 mg/ml to produce compound stock solutions (“stocks”). Stocks were diluted with DMSO by a five-fold dilution in a 96-well stock plate, and two sets of final concentrations of 50, 10, and 2 ppm or 2, 0.4, and 0.08 ppm were obtained in vitro. A set of positive controls was also prepared, with various concentrations of Soraphen (2, 0.4, and 0.08 ppm), Metalaxyl (1.1, 0.22, and 0.04 ppm), and Metconazole (2, 0.4, and 0.08 ppm or 0.2, 0.04, and 0.008 ppm) after the five-fold dilutions. Negative controls on each plate included 2% DMSO, water, and a blank (media+2% DMSO). Fungal spores were isolated from previously sub-cultured plates of Botrtyis cinerea (Bc). Collectotrichum graminicola (Cg). Diplodia maydis (Dm), Fusarium moniliforme (Fm), Fusarium virguliforme (Fv), Phytophthora capsici (Pc), and Septoria tritici (St). The isolated spores were diluted to individual concentrations with a 17% V8 liquid media. For Rhizoctonia solani (Rs) and Pythium irregulare, 1.5 mm mycelial plugs were used in place of spores and ¼ Potato Dextrose Broth (PDB) was used for dilution. The spore concentrations and plug sizes were based on growth curves generated at 48 hours for each pathogen. In a second 96-well plate, the spores or mycelial plugs, media, diluted compound solutions, and controls were combined. Once the compound was added, a true final concentration of compound in each well was measured by an OD600 reading, which adjusted for any compound precipitation that might have occurred in the well. Plate readings were repeated at both 24 and 48 hours. The blank negative control was used as a background subtraction. Additional visual ratings were performed at both 24 and 48 hours for checking on precipitation and confirming efficacy. Visual and OD600 ratings of the compounds at 48 hours were compared to the 2% DMSO negative control, and the percent of pathogen growth inhibition was determined based on those values.

Septoria tritici (St) = assay: Growth inhibition assay of fungal pathogens; type: cell-based; conditions: for IC90: Zymoseptoria tritici, read-out: Concentration at 90% Inhibition St
Procedure: as §1

[2] = tested on: Fusarium virguliforme (Fv); assay: Growth inhibition assay of fungal pathogens; type: cell-based; conditions: 48 h
Procedure: as §1

Botrtyis cinerea (Bc) = assay: Growth inhibition assay of fungal pathogens; type: cell-based; conditions: 48 h, read-out: Concentration at 90% Inhibition Bc
Procedure: as §1

Rhizoctonia solani (Rs) = assay: Growth inhibition assay of fungal pathogens; type: cell-based; conditions: 48 h, read-out: Concentration at 90% Inhibition Rs
Procedure: as §1

Diplodia maydis (Dm) = assay: Growth inhibition assay of fungal pathogens; type: cell-based; conditions: Stenocarpella maydis, 48 h, read-out: Concentration at 90% Inhibition Dm
Procedure: as §1

[3] = tested on: Collectotrichum graminicola (Cg); assay: Growth inhibition assay of fungal pathogens; type: cell-based; conditions: 48 h, read-out: Concentration at 90% Inhibition Cg
Procedure: as §1

[4] = tested on: Phytophthora capsici (Pc); assay: Growth inhibition assay of fungal pathogens; type: cell-based; conditions: for IC90: Phytophthora capsici, read-out: Concentration at 90% Inhibition Pc
Procedure: as §1

C. krusei ATCC 6258 = assay: Anti-Fungal (Candida) Activity Assay, broth microtiter MIC; type: cell-based; conditions: Pichia kudriavzevii, read-out: MIC C. krusei ATCC 6258
Procedure: (§2) Compounds of the present invention were evaluated in an Anti-Fungal Activity Assay. An exemplary procedure for the assay, which measures the susceptibility of various Candida species to anti-fungal compounds, follows. Compounds to be tested (including fluconazole and amphotericin B) were dissolved in DMSO to obtain a solution having a concentration of 1 mg/mL. […] All species were grown from frozen stock by directly plating on to freshly prepared Sabouraud Dextrose agar (BD, Difco) and incubated overnight in ambient air at 35° C. for 24 h. A direct suspension was prepared in RPMI 1640+MOPS (Lonza, Biowhittaker) by taking individual colonies from the overnight cultures using sterile swabs soaked in sterile saline. The concentration of the suspension was determined using pre-determined standard curves. […] Broth microtiter MIC challenge plates were prepared following CLSI guidelines (M27-A3, Vol. 28 No. 14). The original CLSI guidelines focused on reading Candida MICs after 48 h of incubation. As reading after only 24 h offers a clear advantage of patient care, QC limits are being established for all drugs at 24 h. That being said there are no known interpretive breakpoints for amphotericin B at 24 h and the current fluconazole interpretive breakpoints are based on a 48 h reading. The MIC for the test compounds were recorded at 48 h. All MIC determinations were achieved by visually comparing the growth found in the antibiotic challenged wells to that of the growth control.

C. albicans ATCC 90028 = assay: as above; type: cell-based; conditions: read-out: MIC C. albicans ATCC 90028
Procedure: as §2

[5] = tested on: C. parapsilosis ATCC 22019; assay: as above; type: cell-based; conditions: Lodderomyces parapsilosis, read-out: MIC C. parapsilosis ATCC 22019
Procedure: as §2

human (hACC2) ACC2 = human (hACC2) ACC2 (Homo sapiens, UniProt O00763); assay: In vitro Acetyl-CoA Carboxylase (ACC) inhibition assay (ADP-Glo), hACC2; type: biochemical
Chain of human (hACC2) ACC2 (O00763 whole entry): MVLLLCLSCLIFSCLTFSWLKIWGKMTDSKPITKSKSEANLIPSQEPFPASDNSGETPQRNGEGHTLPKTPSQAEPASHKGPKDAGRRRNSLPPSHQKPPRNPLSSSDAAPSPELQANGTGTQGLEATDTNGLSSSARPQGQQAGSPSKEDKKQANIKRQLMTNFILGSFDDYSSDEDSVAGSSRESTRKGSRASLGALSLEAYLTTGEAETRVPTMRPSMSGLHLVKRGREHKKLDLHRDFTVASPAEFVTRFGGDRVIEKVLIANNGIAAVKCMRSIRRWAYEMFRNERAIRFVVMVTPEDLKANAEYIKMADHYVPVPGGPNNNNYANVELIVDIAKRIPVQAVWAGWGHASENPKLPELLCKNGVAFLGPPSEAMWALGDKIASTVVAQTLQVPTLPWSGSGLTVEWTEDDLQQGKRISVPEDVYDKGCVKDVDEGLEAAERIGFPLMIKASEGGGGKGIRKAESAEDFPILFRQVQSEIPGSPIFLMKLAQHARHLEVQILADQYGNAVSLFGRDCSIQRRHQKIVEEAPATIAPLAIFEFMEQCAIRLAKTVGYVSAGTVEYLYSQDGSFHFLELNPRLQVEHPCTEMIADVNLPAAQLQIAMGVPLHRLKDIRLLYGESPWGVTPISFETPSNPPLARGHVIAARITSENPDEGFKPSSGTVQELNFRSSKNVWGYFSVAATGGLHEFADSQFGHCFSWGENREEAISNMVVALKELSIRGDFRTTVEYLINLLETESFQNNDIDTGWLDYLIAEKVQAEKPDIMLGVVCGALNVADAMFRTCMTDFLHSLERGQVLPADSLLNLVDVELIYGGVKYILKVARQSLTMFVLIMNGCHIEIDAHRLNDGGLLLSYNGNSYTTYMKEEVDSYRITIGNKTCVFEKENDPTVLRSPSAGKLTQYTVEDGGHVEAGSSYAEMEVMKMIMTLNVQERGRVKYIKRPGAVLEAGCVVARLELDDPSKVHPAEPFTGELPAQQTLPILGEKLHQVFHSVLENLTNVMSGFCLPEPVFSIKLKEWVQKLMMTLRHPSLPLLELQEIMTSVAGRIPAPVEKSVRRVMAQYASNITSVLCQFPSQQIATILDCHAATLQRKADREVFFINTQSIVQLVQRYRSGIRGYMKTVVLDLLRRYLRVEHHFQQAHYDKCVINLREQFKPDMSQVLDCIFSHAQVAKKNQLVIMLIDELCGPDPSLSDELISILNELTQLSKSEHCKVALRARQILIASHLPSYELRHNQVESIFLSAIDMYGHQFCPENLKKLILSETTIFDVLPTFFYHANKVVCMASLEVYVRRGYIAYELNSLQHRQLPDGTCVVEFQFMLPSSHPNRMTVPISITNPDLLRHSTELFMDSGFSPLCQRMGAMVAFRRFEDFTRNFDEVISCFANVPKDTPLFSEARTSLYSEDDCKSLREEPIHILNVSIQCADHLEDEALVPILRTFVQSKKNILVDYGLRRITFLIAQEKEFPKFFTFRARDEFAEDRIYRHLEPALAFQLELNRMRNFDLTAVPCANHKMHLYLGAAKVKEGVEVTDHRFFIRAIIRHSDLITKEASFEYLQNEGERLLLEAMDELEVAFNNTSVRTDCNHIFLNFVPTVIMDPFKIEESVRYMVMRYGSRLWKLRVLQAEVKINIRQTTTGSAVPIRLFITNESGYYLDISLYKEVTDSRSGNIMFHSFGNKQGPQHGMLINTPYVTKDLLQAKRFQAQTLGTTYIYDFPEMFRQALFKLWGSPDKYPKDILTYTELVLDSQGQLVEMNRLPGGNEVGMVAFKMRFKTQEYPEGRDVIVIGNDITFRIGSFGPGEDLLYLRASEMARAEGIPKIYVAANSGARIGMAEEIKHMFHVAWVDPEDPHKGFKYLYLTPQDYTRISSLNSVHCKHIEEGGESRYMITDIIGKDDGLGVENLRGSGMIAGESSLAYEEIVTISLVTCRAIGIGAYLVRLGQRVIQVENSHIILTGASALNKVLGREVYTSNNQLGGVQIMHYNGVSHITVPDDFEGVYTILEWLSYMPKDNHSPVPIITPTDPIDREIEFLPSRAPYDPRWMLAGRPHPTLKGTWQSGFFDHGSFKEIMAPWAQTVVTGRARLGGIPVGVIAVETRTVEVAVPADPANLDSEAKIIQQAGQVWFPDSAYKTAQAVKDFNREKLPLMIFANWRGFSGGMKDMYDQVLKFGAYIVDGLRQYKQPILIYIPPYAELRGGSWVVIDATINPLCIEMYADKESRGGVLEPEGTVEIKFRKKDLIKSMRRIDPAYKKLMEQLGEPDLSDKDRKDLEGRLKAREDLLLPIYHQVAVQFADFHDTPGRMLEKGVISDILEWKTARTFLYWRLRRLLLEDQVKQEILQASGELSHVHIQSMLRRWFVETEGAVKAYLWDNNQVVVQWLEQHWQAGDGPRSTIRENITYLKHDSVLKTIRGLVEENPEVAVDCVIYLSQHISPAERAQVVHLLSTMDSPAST
Procedure: The detailed procedure is as follows. […] 10 μL ADP glo reagent was added. […] 20 μL kinase detection reagent was added.
“NA” stands for “not assayed.”

COc1ccc(F)cc1[C@H](Cn1c(=O)n(C(C)(C)C(=O)NC(C)C)c(=O)c2c(C)c(-n3cccn3)sc21)OC1CCOCC1 [Compound I-6, (R)-2-(1-(2-(5-fluoro-2-methoxyphenyl)-2-((tetrahydro-2H-pyran-4-yl)oxy)ethyl)-5-methyl-2,4-dioxo-6-(1H-pyrazol-1-yl)-1,4-dihydrothieno[2,3-d]pyrimidin-3(2H)-yl)-N-isopropyl-2-methylpropanamide] was tested, and the IC90 [1] was 0.4 µg/mL (≈ 0.637 µM), the “Concentration at 90% Inhibition Fm” value ([1]; Table 4b, 48 hours) was “A (“A” provided a compound concentration of 0.4 ppm at 90% inhibition of fungal pathogens)” and the IC90 (Septoria tritici (St); 48 h, Table 4a) was over 50 µg/mL. It also gave an IC90 (Septoria tritici (St); 48 h, Table 4b) of over 50 µg/mL, an IC90 ([2]; read-out: Concentration at 90% Inhibition Fv, Table 4a, 48 hours) of 2 µg/mL (≈ 3.19 µM) and an IC90 ([2]; read-out: Concentration at 90% Inhibition Fv, Table 4b, 48 hours) of 2 µg/mL (≈ 3.19 µM). For the same compound, the IC90 (Botrtyis cinerea (Bc); Table 4a) was 2 µg/mL (≈ 3.19 µM), the IC90 (Botrtyis cinerea (Bc); Table 4b) was 2 µg/mL (≈ 3.19 µM) and the IC90 (Rhizoctonia solani (Rs); Table 4a) was over 50 µg/mL. For the same compound, the IC90 (Rhizoctonia solani (Rs); Table 4b) was 10 µg/mL (≈ 15.9 µM), the IC90 (Diplodia maydis (Dm); Table 4a) was 10 µg/mL (≈ 15.9 µM) and the IC90 (Diplodia maydis (Dm); Table 4b) was 2 µg/mL (≈ 3.19 µM). For the same compound, the IC90 ([3]; Table 4a) was 10 µg/mL (≈ 15.9 µM), the IC90 ([3]; Table 4b) was 2 µg/mL (≈ 3.19 µM) and the IC90 ([4]; 48 h, Table 4a) was over 50 µg/mL. It also gave an IC90 ([4]; 48 h, Table 4b) of over 50 µg/mL, an MIC (C. krusei ATCC 6258; ATCC6258, 48 h) of 0.25 to 1 µg/mL (≈ 0.398 to 1.59 µM) and an MIC (C. albicans ATCC 90028; ATCC90028, 48 h) of 0.25 to 1 µg/mL (≈ 0.398 to 1.59 µM). For the same compound, the MIC ([5]; ATCC22019, 48 h) was 1.1 to 2 µg/mL (≈ 1.75 to 3.19 µM) and the IC50 (human (hACC2) ACC2) was 10 to 40 nM.

COc1ccc(F)cc1[C@H](Cn1c(=O)n(C(C)(C)C(=O)N2CCCC2)c(=O)c2c(C)c(-n3cccn3)sc21)OC1CCOCC1 [Compound I-7, (R)-1-(2-(5-fluoro-2-methoxyphenyl)-2-((tetrahydro-2H-pyran-4-yl)oxy)ethyl)-5-methyl-3-(2-methyl-1-oxo-1-(pyrrolidin-1-yl)propan-2-yl)-6-(1H-pyrazol-1-yl)thieno[2,3-d]pyrimidine-2,4(1H,3H)-dione] was tested, and the IC90 ([1]; Table 4a, 48 hours) was 0.08 µg/mL (≈ 0.125 µM), the IC90 ([1]; Table 4b, 48 hours) was 0.08 µg/mL (≈ 0.125 µM) and the “Concentration at 90% Inhibition St” value (Septoria tritici (St); Table 4b, 48 hours) was “D (“D” provided a compound concentration of >50 ppm at 90% inhibition of fungal pathogens)”. For the same compound, the IC90 (Septoria tritici (St); Table 4a, 48 hours) was over 50 µg/mL, the IC90 ([2]; Table 4a, 48 hours, read-out: Concentration at 90% Inhibition Fv) was over 50 µg/mL and the IC90 ([2]; Table 4b, 48 hours, read-out: Concentration at 90% Inhibition Fv) was 10 µg/mL (≈ 15.6 µM). For the same compound, the IC90 (Botrtyis cinerea (Bc); Table 4a) was 2 µg/mL (≈ 3.13 µM), the IC90 (Botrtyis cinerea (Bc); Table 4b) was 2 µg/mL (≈ 3.13 µM) and the IC90 (Rhizoctonia solani (Rs); Table 4a) was 2 µg/mL (≈ 3.13 µM). The IC90 (Rhizoctonia solani (Rs); Table 4b) was 2 µg/mL (≈ 3.13 µM), the IC90 (Diplodia maydis (Dm); Table 4a) was 10 µg/mL (≈ 15.6 µM) and the IC90 (Diplodia maydis (Dm); Table 4b) was 2 µg/mL (≈ 3.13 µM). For the same compound, the IC90 ([3]; Table 4a) was 0.4 µg/mL (≈ 0.625 µM), the IC90 ([3]; Table 4b) was 0.4 µg/mL (≈ 0.625 µM) and the IC90 ([4]; Table 4a, 48 hours) was over 50 µg/mL. The “Concentration at 90% Inhibition Pc” value ([4]; Table 4b, 48 hours) was “D (“D” provided a compound concentration of >50 ppm at 90% inhibition of fungal pathogens)”, the MIC (C. krusei ATCC 6258; ATCC6258, 3 replicates, MIC recorded at 48 h) was 0.25 to 1 µg/mL (≈ 0.391 to 1.56 µM) and the MIC (C. albicans ATCC 90028; ATCC90028, 3 replicates, MIC recorded at 48 h) was 1.1 to 2 µg/mL (≈ 1.72 to 3.13 µM). The MIC ([5]; ATCC22019, 3 replicates, MIC recorded at 48 h) was 1.1 to 2 µg/mL (≈ 1.72 to 3.13 µM) and the IC50 (human (hACC2) ACC2) was 3 to 10 nM.
